Assay results published in patent publication US20260216348A1, “IRAK DEGRADATION AGENT AND USE THEREOF” (Increland, priority 2023, published 2026).

How the values were obtained:
[1] = test system: CIA-induced rheumatoid arthritis model; assay: CIA-induced rheumatoid arthritis model; type: in vivo, DBA/1J mice; settings: BID, Model 12.31 ± 2.97, Mean ± SD, n = 7
Experimental: 1. DBA/1J mice, male, SPF grade, were pre-acclimatized in the animal facility for one week. 2. On day 1, for the primary immunization, 2 mg/mL bovine type II collagen was mixed thoroughly with an equal volume of complete Freund's adjuvant on ice using a homogenizer until fully emulsified. 100 μL of the collagen emulsion (final concentration 1 mg/mL) was intradermally injected at 2 cm from the base of the mouse tail. Medical iodophor was used to disinfect the tail after injection to prevent tail necrosis, which was conducted for 3 consecutive days. 3. On day 21, bovine type II collagen solution was thoroughly mixed and emulsified with an equal volume of Freund's incomplete adjuvant, using the same method as the primary immunization. 4. On day 26, LPS was administered intraperitoneally at a dose of 50 μg/animal to induce disease. 5. On day 28, the affected mice were scored according to Table 33 and the diameter of their ankle joints was measured. Mice were randomly grouped and treated with medication based on their scores and ankle diameter.

[2] = test system: IMQ psoriasis model; assay: IMQ (imiquimod)-induced psoriasis model; type: in vivo, BALB/c mice; settings: 100 mg/kg, BID, Mean ± SD, n = 7
Experimental: Male BALB/c mice, aged 6-8 weeks, were randomly divided into 9 groups after 1 week of acclimatization: blank control group, imiquimod model group (IMQ group, corresponding to the model groups in FIGS. 1 and 2), clobetasol propionate cream group (CLO group), TYKI (BMS-986165) group, IRAK4 protein degrader KT-474 (from patent WO2020113233) group (100 mg/kg), and the compound of the present disclosure (at an appropriate dose), with 6-7 mice in each group. One day before modeling, the hair on the backs of the mice was removed with depilatory cream, with a depilated area of 2×2 cm^2. On the day of modeling, IMQ cream was used for modeling, and the corresponding drugs were administered intragastrically for treatment. The compound of the present disclosure (at an appropriate dose) was administered intragastrically once daily, and IMQ cream was applied to the hairless area on the back and left ear of mice 2 h after the first administration. […] The blank group and the IMQ group were administered with vehicle intragastrically twice daily (in the morning and evening), with an 8-h interval between the two intragastric administrations. At 2 h after the first intragastric administration, vaseline and IMQ cream were applied topically to the depilated back and ears of the mice, respectively. The dosage of IMQ cream administered to the depilated area on the back and the left ear was 80 mg and 10 mg, respectively, and the mice in each group were administered the cream for 5 consecutive days.
Reference was made to the Psoriasis Area and Severity Index (PASI) scoring criteria. The psoriasis, erythema, and thickness of skin lesions on the back were scored from 0 to 4 every morning from day 1 of modeling, with the scoring criteria as shown in Table 28. The 3 were added up to obtain a total score, i.e., a total PASI score. The ear thickness of the left ear of the mouse was measured using a digital vernier caliper three times every morning from day 1 of modeling, to obtain a mean value.

[3] = test system: DSS-induced enteritis model; assay: DSS-induced enteritis (colitis) model; type: in vivo, mice; settings: po, Model 10.33 ± 1.11, Mean ± SD, n = 7
Source text: The experimental mice were pre-acclimatized in the animal facility for one week; at the beginning of the experiment, the mice were given medication intragastrically daily according to their body weight. After the completion of intragastric administration in each group, mice had direct access to water bottles for free drinking. The blank group received normal water, while the other groups received pre-prepared DSS water. Each afternoon, the mice's abdomens were massaged to stimulate defecation, and one fecal pellet was collected onto a white porcelain plate. Fecal consistency was judged and recorded according to Table 30. The fecal occult blood qualitative test kit (Yuanye Biotechnology, #R24187-300T) was used to test for occult blood in feces and the results were interpreted according to Table 31.

[4] = test system: LPS/IL-1β-induced IL-6 secretion in human peripheral blood mononuclear cells (PBMCs); assay: Inhibition of LPS/IL-1β-induced IL-6 secretion in human PBMCs (IL-6 ELISA); type: cell-based; settings: PBMC, LPS 10 ng/mL + IL-1β 20 ng/mL, 24 h pre-incubation, 20 h stimulation
Procedure, shortened: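 PBMCs preincubated 24 h at 37 °C with compounds (5-fold dilutions from 1 μM) in RPMI/10% FBS, then stimulated 20 h with LPS 10 ng/mL plus IL-1β 20 ng/mL (final). IL-6 in 200-fold diluted supernatant measured by ELISA at OD450 against a standard curve; IC50 from dose-response fitting.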

[5] = target: T1, IRAK4 (Homo sapiens, UniProt Q9NWZ3); assay: IRAK4 protein degradation in THP1 cells (Western blot); type: cell-based; settings: THP-1 cells, 24 h
T1 construct: Effect of the Compounds on IRAK4 Protein Degradation in THP1 Cells; endogenous in cells; host or cells: THP-1 cells
T1 sequence (Q9NWZ3 1-460): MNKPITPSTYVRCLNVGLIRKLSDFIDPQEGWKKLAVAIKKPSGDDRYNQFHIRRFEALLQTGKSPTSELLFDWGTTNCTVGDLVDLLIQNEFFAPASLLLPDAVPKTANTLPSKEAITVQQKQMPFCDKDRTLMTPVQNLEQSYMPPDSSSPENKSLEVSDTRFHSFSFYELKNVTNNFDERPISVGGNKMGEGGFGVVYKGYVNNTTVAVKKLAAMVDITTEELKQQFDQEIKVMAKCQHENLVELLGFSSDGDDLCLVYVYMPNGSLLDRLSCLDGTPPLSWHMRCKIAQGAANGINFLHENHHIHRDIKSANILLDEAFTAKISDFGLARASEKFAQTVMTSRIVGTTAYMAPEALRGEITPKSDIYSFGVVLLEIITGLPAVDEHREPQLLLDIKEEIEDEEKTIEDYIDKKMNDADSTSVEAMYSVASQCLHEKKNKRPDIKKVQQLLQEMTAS
Procedure, shortened: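 THP-1 cells (2×10^5/well) were treated with 5-fold serial compound dilutions for 24 h at 37 °C, then lysed with proteasome/phosphatase inhibitors. IRAK4 was detected by Western blot with chemiluminescence and semi-quantified by densitometry. DC50 came from the concentration–response.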

[6] = Metabolic stability in human liver microsome; type: in vitro ADME; settings: NADPH, 60 min; for half-life at 1 µM: liver microsomes, read-out: Human liver microsome (t1/2, min)
Experimental: Clean incubation plates T60 and NCF60 were preheated at 37° C. for 10 min. Liver microsomes were diluted to a concentration of 0.56 mg/mL with 100 mM phosphate buffer, and 445 μL of the microsome working solution (0.56 mg/mL) was transferred to the preheated incubation plates T60 and NCF60, followed by incubation of the plates T60 and NCF60 with continuous shaking at 37° C. for 10 min. After incubation, 54 μL of liver microsomes were transferred to a blank plate, 6 μL of NAPDH cofactor was added to the blank plate, and then 180 μL of quenching solution was added to the blank plate. 5 μL of the compound working solution (100 μM) was added to the microsome-containing incubation plates T60 and NCF60, and mixed thoroughly 3 times. For plate NCF60, 50 μL of buffer was added and the system was mixed thoroughly 3 times before timing was started, and the plate was incubated with shaking at 37° C. for 60 min. For the quenching plate, 180 μL of quenching solution and 6 μL of NADPH cofactor were added, and the plate was ensured to be cooled to prevent evaporation. For the T60 plate, the mixture was thoroughly mixed 3 times, and 54 μL of the mixture was immediately transferred to the quenching plate at the time point of 0 min. Then 44 μL of the NAPDH cofactor was added to the incubation plate (T60). Timing was started, and the plate was incubated with shaking at 37° C. for 60 min. At the time points of 5, 15, 30, 45, and 60 min, 180 μL of the quenching solution was added to the quenching plate respectively, mixed once, and 60 μL of sample was continuously transferred from the plate T60 to the quenching plate at each time point. For plate NCF60, after mixing once, 60 μL of the sample was transferred from incubation plate NCF60 to the quenching plate containing quenching solution at the 60-min time point. All sampling plates were shaken for 10 min, then centrifuged at 4000 rpm at 4° C. for 20 min. 80 μL of the supernatant was transferred to 240 μL of HPLC water, and mixed using a plate shaker for 10 min. Each bioanalytical plate was sealed and shaken for 10 min before LC-MS/MS analysis.

[7] = test system: R848-induced IL-6 secretion in human peripheral blood mononuclear cells (PBMCs); assay: Inhibition of R848-induced IL-6 secretion in human PBMCs (IL-6 ELISA); type: cell-based; settings: PBMC, R848 2.5 μg/mL, 20 h pre-incubation, 24 h stimulation
Experimental: This experiment was carried out in RPMI 1640 medium containing 10% FBS and 1% penicillin/streptomycin, with each of the compounds at an initial test concentration of 1 μM. The compound was dissolved in DMSO to prepare a stock solution, which was serially diluted into a series of working solutions with a 4-fold concentration gradient using the culture medium and then added to a 96-well plate at 10 μL per well. PBMCs (Batch No.: P122101102C; Milecell Biotechnology Inc.) were counted and diluted to a cell concentration of 1.25×10^6 cells/mL, and then added to the aforementioned compound-containing 96-well plate at 160 μL per well. The system was mixed well and incubated in a 5% CO2 incubator at 37° C. for 20 h. Then 10 μL of R848 (final concentration: 2.5 μg/mL) was added, and the culture was continued for 24 h in a 5% CO2 incubator at 37° C. After incubation, the 96-well plate was centrifuged at 2000 rpm for 4 min. The supernatant was collected and diluted 120-fold, then detected using an IL-6 ELISA kit. The OD450 values were read, and converted to IL-6 concentrations based on a standard curve.

Row | SMILES | DC50 [5] [nM] | half-life at 1 µM [6] [min] | IC50 [4] [nM] | IC50 [7] [nM] | also measured
1 | C[C@@H]1CCN(C(=O)CC#N)C[C@@H]1N(C)c1ncnc2[nH]ccc12 [tofacitinib, Tofacitinib, reference compound] | – | – | – | – | DAI Score d 42 ([1]; 30 mg/kg): 10.67 ± 3.13
2 | Cn1c(=O)n(C2CCC(=O)NC2=O)c2cccc(C#CCOC3CCN(C[C@H]4CC[C@H](n5cc(NC(=O)c6cnn7ccc(N8C[C@H]9C[C@@H]8CO9)nc67)c(C(F)F)n5)CC4)CC3)c21 (stereo partly shown) [KT474, reference compound] | – | – | – | – | PASI Score d 6 ([2]; Model 8.85 ± 1.66): 6.93 ± 2.36; ΔSkin Thickness Change (μm) d 6 ([2]; Model 80.95 ± 6.16): 31.90 ± 9.90 μm; DAI Score d 8 ([3]; 100 mpk, BID): 5.71 ± 1.28; DAI Score d 42 ([1]; 100 mg/kg): 11.63 ± 2.55
3 | CN(C)c1cc2nn([C@H]3CC[C@H](CN4CC[C@@H](n5cc6cc(F)c(C7CCC(=O)NC7=O)cc6n5)[C@H](F)C4)CC3)cc2cc1NC(=O)c1cnn2cccnc12 (stereo partly shown) [TM-137] | 9.41 | 92.3 | 2.4 | – | –
4 | CN(C)c1cc2nn([C@H]3CC[C@H](CN4CCC(n5cc6cc(F)c(C7CCC(=O)NC7=O)cc6n5)CC4)CC3)cc2cc1NC(=O)c1cnn2cccnc12 (stereo partly shown) [TM-6] | 0.7 | 124 | 1.15 | – | –
5 | CN(C)c1cc2nn([C@H]3CC[C@H](CN4CC[C@H](n5cc6cc(C7CCC(=O)NC7=O)c(F)cc6n5)[C@H](F)C4)CC3)cc2cc1NC(=O)c1cnn2cccnc12 (stereo partly shown) [TM-132] | 0.31 | 93.1 | 3.52 | 7.83 | –
6 | CN(C)c1cc2nn([C@H]3CC[C@H](CN4C[C@@H](F)[C@H](n5cc6c(F)cc(N7CCC(=O)NC7=O)cc6n5)C4)CC3)cc2cc1NC(=O)c1cnn2cccnc12 [TM-221] | 8.45 | – | 1.88 | 7.1 | DAI Score d 8 ([3]; 3 mpk, QD): 4.43 ± 1.68; DAI Score d 8 ([3]; 10 mpk, QD): 3.00 ± 1.07; DAI Score d 8 ([3]; 30 mpk, QD): 2.57 ± 2.50

Continued, in another order:

Row | DC50 [5] [nM] | half-life at 1 µM [6] [min] | SMILES | IC50 [4] [nM] | IC50 [7] [nM] | also measured
7 | – | 138 | CN(C)c1cc2nn([C@H]3CC[C@H](CN4CCC(n5cc6c(F)cc(C7CCC(=O)NC7=O)cc6n5)CC4)CC3)cc2cc1NC(=O)c1cnn2cccnc12 (stereo partly shown) [TM-233] | 0.83 | 3.34 | –
8 | 3.58 | – | CN(C)c1cc2nn(C3CCN(C[C@H]4CC[C@H](n5cc6cc(C7CCC(=O)NC7=O)c(F)cc6n5)CC4)CC3)cc2cc1NC(=O)c1cnn2cccnc12 (stereo partly shown) [TM-8] | 0.84 | – | Human liver microsome (t1/2, min) [6]: 145 min
9 | 2.76 | – | CN(C)c1cc2nn([C@H]3CC[C@H](CN4CCC(n5cc6cc(N7CCC(=O)NC7=O)ccc6n5)CC4)CC3)cc2cc1NC(=O)c1cnn2cccnc12 [TM-3] | 0.39 | 3.53 | Human liver microsome (t1/2, min) [6]: 145 min
